Data taken from ChEMBL document CHEMBL1129240, “Synthesis of acyclo-C-nucleosides in the imidazo[1,2-a]pyridine and pyrimidine series as antiviral agents” (J Med Chem, 1996).
In brackets after ≈: the same amount, converted by molar mass.

How the values were obtained:
[1] = Cytotoxic concentration required to reduce CEM cell viability by 50%; assay type: cell-based; settings: human, CCRF-CEM (CEM) cells
[2] = system: Cytomegalovirus; experiment: Minimum Inhibitory Concentration (MIC) tested for activity against Cytomegalovirus (CMV) using AD169 strain; assay type: functional; settings: Human betaherpesvirus 5
[3] = system: Cytomegalovirus; experiment: Minimum Inhibitory Concentration (MIC) tested for activity against Cytomegalovirus (CMV) using Davis strain; assay type: functional; settings: Human betaherpesvirus 5
[4] = Cytotoxic concentration required to cause microscopically detectable alteration of normal cell morphology of E6SM cells; assay type: cell-based; settings: human, read-out: CC50
[5] = Minimum cytotoxic concentration to reduce the HEL cell proliferation by 50%; assay type: cell-based; settings: human, HEL cells; read-out: MCC
[6] = system: Human alphaherpesvirus 3; experiment: Minimum Inhibitory Concentration (MIC) tested for activity against Varicella-Zoster Virus(VZV) using YS(TK+) strain.; assay type: functional
[7] = system: Human alphaherpesvirus 3; experiment: Minimum Inhibitory Concentration (MIC) for activity against Varicella-Zoster Virus(VZV) using OKA (TK+) strain; assay type: functional
[8] = system: Human alphaherpesvirus 3; experiment: Minimum Inhibition Concentration (MIC) for activity against Varicella-Zoster Virus(VZV) using YS/R (TK-) strain.; assay type: functional
[9] = (§1) Cytotoxic concentration required to cause microscopically detectable alteration of normal cell morphology of Vero cells; assay type: cell-based; settings: chlorocebus sabaeus, read-out: CC50
[10] = system: Human alphaherpesvirus 3; experiment: Minimum Inhibitory Concentration (MIC) tested for activity against Varicella-Zoster Virus(VZV) using 07/1 (TK-) strain.; assay type: functional
[11] = (§2) Cytotoxic concentration required to cause microscopically detectable alteration of normal cell morphology of HeLa cells; assay type: cell-based; settings: human, read-out: CC50
[12] = system: Human alphaherpesvirus 3; experiment: Minimum Inhibition Concentration (MIC) for activity against Varicella-Zoster Virus(VZV) using OKA (TK+) strain; assay type: functional
[13] = system: Human alphaherpesvirus 3; experiment: Minimum Inhibition Concentration (MIC) for activity against Varicella-Zoster Virus(VZV) using YS(TK+) strain.; assay type: functional
[14] = system: Human alphaherpesvirus 3; experiment: Minimum Inhibition Concentration (MIC) for activity against Varicella-Zoster Virus(VZV) using 07/1 (TK-) strain.; assay type: functional
[15] = Minimum cytotoxic concentration required to reduce human embryonic lung (HEL) cell proliferation by 50%; assay type: cell-based; settings: human embryonic lung (HEL) cells, read-out: MCC
[16] = system: Human alphaherpesvirus 3; experiment: Minimum Inhibitory Concentration (MIC) tested for activity against Varicella-Zoster Virus(VZV) using YS/R (TK-) strain.; assay type: functional
[17] = system: Cytomegalovirus; experiment: Minimum Inhibition Concentration (MIC) for activity against Cytomegalovirus (CMV) using AD169 strain; assay type: functional; settings: Human betaherpesvirus 5
[18] = system: Human alphaherpesvirus 3; experiment: Minimum Inhibition Concentration( MIC) for activity against Varicella-Zoster Virus(VZV) using YS/R (TK-) strain.; assay type: functional
[19] = system: Cytomegalovirus; experiment: Minimum Inhibition Concentration (MIC) for activity against Cytomegalovirus (CMV) using Davis strain; assay type: functional; settings: Human betaherpesvirus 5
[20] = system: Vero; experiment: as §1; assay type: cell-based; settings: Chlorocebus sabaeus
[21] = system: HeLa; experiment: as §2; assay type: cell-based; settings: Homo sapiens
[22] = system: Human alphaherpesvirus 3; experiment: Minimum Inhibition Concentration (MIC) for activity against Varicella-Zoster Virus(VZV) using YS(TK+) strain; assay type: functional
[23] = system: Human alphaherpesvirus 3; experiment: Minimum Inhibition Concentration (MIC) for activity against Varicella-Zoster Virus(VZV) using YS/R (TK-) strain; assay type: functional
[24] = system: Human alphaherpesvirus 3; experiment: Minimum Inhibition Concentration( MIC) for activity against Varicella-Zoster Virus(VZV) using 07/1 (TK-) strain.; assay type: functional

SMILES | CC50 [1] [µg/mL] | MIC [2] [µg/mL] | MIC [3] [µg/mL] | MCC [4] [µg/mL] | CC50 [5] [µg/mL] | MIC [6] [µg/mL] | MIC [7] [µg/mL] | MIC [8] [µg/mL] | MCC [9] [µg/mL] | MCC [11] [µg/mL] | MIC [13] [µg/mL] | MIC [16] [µg/mL] | further results
c1ccc(CSCc2cnc3ncccn23)cc1 | 4.2 (≈ 16.4 µM) | 2 (≈ 7.83 µM) | 2 (≈ 7.83 µM) | 100 | 40 (≈ 157 µM) | 2.4 (≈ 9.4 µM) | 8.8 (≈ 34.5 µM) | > 10 | 200 | 40 | – | – | MIC [10]: 5 µg/mL (≈ 19.6 µM)
Nc1ccn(C[C@@H](CO)OCP(=O)(O)O)c(=O)n1.O.O [CIDOFOVIR] | – | 0.05 | 0.05 | – | > 100 | – | – | 0.004 | – | – | 0.033 | – | MIC [12]: 0.04 µg/mL
Cc1c(Br)c(C)n2c(CSCc3ccccc3)cnc2c1Br | 35 (≈ 79.5 µM) | 1.7 (≈ 3.86 µM) | 4 (≈ 9.09 µM) | > 40 | > 100 | – | – | 40 (≈ 90.9 µM) | > 40 | > 100 | > 40 | – | MIC [12]: > 40 µg/mL; MIC [14]: 40 µg/mL (≈ 90.9 µM)
Cc1cccc2ncc(CSCCO)n12 | 22 (≈ 99 µM) | > 10 | > 10 | 200 | 40 (≈ 180 µM) | > 10 | > 10 | > 10 | 200 | 100 | – | – | MIC [10]: > 10 µg/mL
COC(=O)c1nc2ccccn2c1CSCCO | 87 (≈ 327 µM) | > 50 | > 50 | > 400 | – | – | > 25 | – | > 400 | > 200 | > 25 | > 25 | CC50 [15]: > 100 µg/mL
Cc1c(Br)cn2c(CSCCO)cnc2c1Br | 37 (≈ 97.3 µM) | 20 (≈ 52.6 µM) | 30 (≈ 78.9 µM) | > 200 | 50 (≈ 132 µM) | > 40 | 35 (≈ 92.1 µM) | – | > 40 | > 100 | – | 20 (≈ 52.6 µM) | MIC [14]: 22 µg/mL (≈ 57.9 µM)
CCOC(=O)CSCc1cnc2cc(C)ccn12 | 37 (≈ 140 µM) | 25 (≈ 94.6 µM) | 23 (≈ 87 µM) | 200 | 80 (≈ 303 µM) | > 40 | > 40 | – | > 200 | > 100 | – | > 40 | MIC [10]: > 40 µg/mL
Cc1c(Br)cn2c(CSCc3ccccc3)cnc2c1Br | 5 (≈ 11.7 µM) | – | – | 40 | 30 (≈ 70.4 µM) | – | – | – | 40 | 40 | 1.8 (≈ 4.22 µM) | – | MIC [17]: > 1 µg/mL; MIC [12]: 2.7 µg/mL (≈ 6.34 µM); MIC [14]: 2.3 µg/mL (≈ 5.4 µM); MIC [18]: 2 µg/mL (≈ 4.69 µM); MIC [19]: 2 µg/mL (≈ 4.69 µM)
CCCCOc1ccc(S(=O)(=O)[C@@](C)(Cc2ccc(OCCN3CCCCC3)cc2)C(=O)NO)cc1 | – | – | – | – | – | – | – | – | – | – | – | – | EC50 [20]: > 400 µg/mL; EC50 [21]: > 400 µg/mL
OCCSCc1cnc2ccccn12 | 29 (≈ 139 µM) | 40 (≈ 192 µM) | 35 (≈ 168 µM) | 400 | – | – | 25 (≈ 120 µM) | – | 400 | 200 | – | – | CC50 [15]: > 100 µg/mL; MIC [22]: 25 µg/mL (≈ 120 µM); MIC [23]: 25 µg/mL (≈ 120 µM)
Cc1cccc2ncc(CSCc3ccccc3)n12 | 9.9 (≈ 36.9 µM) | – | – | 10 | – | – | – | – | 40 | 40 | – | – | –
Cc1ccn2c(CSCC(C)O)cnc2c1 (stereo unspecified) | 60 (≈ 254 µM) | > 50 | – | > 400 | > 100 | – | > 100 | – | > 400 | 400 | > 100 | 100 (≈ 423 µM) | MIC [19]: > 50 µg/mL
O=c1[nH]cnc2c1ncn2[C@H]1CC[C@@H](CO)O1 [DIDANOSINE] | > 100 | – | – | – | – | – | – | – | – | – | – | – | –
Cc1ccn2c(CSCCCO)cnc2c1 | 17 (≈ 71.9 µM) | 30 (≈ 127 µM) | 30 (≈ 127 µM) | > 100 | > 100 | – | – | – | > 40 | 40 | > 40 | > 40 | MIC [12]: > 40 µg/mL; MIC [14]: > 40 µg/mL
CCSCc1cnc2cc(C)ccn12 | 11 (≈ 53.3 µM) | > 10 | 10 (≈ 48.5 µM) | 40 | 35 (≈ 170 µM) | > 10 | > 10 | > 10 | 200 | 100 | – | – | MIC [24]: > 10 µg/mL
